Molecules are shown by their SMILES. “And” between values parts separate entries of the source, which are not always exact repeats. Identical values can stand only once.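 Five compound concentrations were applied to cells in 96-well plates for 48 hours; endpoints were derived by simple linear interpolation of the resulting dose-response curve. GI50: concentration for 50% inhibition of growth. TGI marks complete inhibition of growth.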 Bounds are passed on as bounds.

Among the test systems are DLD-1 colon; DMS 273 small cell lung; M19-MEL melanoma; RXF-631 renal; DU-145 prostate; HOP-18 NSCLC; MCF7 breast; T-47D breast; MDA-N; P388/ADR leukemia; SN12K1 renal.
Holding throughout (assay): NCI tumour cell line growth inhibition, 48 h

On to `CCCNCCCC(NC(C)=O)C(=O)NCc1ccccc1` (stereo not drawn), for which the TGI with DLD-1 colon, with DMS 273 small cell lung, in the assay with M19-MEL melanoma and with RXF-631 renal was above 100 µM each time.
In the case of `CCOC(=O)C1(Br)C(c2ccccc2)NC(=O)NC1(C)Br` (stereo not drawn), the TGI with DLD-1 colon, with DMS 273 small cell lung, in the assay on DU-145 prostate, in the assay on HOP-18 NSCLC, in the assay with M19-MEL melanoma and with MCF7 breast was above 100 µM throughout. In addition, the TGI with RXF-631 renal and in the assay with T-47D breast was above 100 µM each time. Besides, the GI50 in the assay on DU-145 prostate was 44.5 µM; with MCF7 breast, 28.1 µM; in the assay with T-47D breast it was 47.3 µM.
As to `COc1ccccc1/C=C1\CCC(CCN(C)C)(C2=CCCC2)C1=O` (stereo not drawn), the TGI in the assay with DLD-1 colon turned out to be 38.5 µM; in the assay on DMS 273 small cell lung, 32.1 µM; in the assay with HOP-18 NSCLC it was 85.3 µM; with M19-MEL melanoma, 31.7 µM; in the assay on RXF-631 renal it was 29.8 µM.
In the case of `C=CC1[C@H]2COC(C)(C)O[C@@H]2CC(=O)C1(C)C` (stereo partly drawn), the TGI with DLD-1 colon, in the assay on DMS 273 small cell lung, in the assay on HOP-18 NSCLC and with M19-MEL melanoma was above 100 µM throughout.
Turning to `COC[C@@H](N=CN1CCc2cc(OC)c(OC)cc2[C@@H]1C)C(C)(C)C`, the TGI in the assay with DLD-1 colon, in the assay on HOP-18 NSCLC, in the assay on M19-MEL melanoma and in the assay with RXF-631 renal was above 100 µM in each case.
Turning to `CCOC(=O)/C(O)=C/c1cc(OC)cc(=O)o1`, the TGI with DLD-1 colon, in the assay on DMS 273 small cell lung, in the assay with HOP-18 NSCLC and with M19-MEL melanoma was above 100 µM in each case.
Turning to `O=Cc1ccccc1OCCOc1cc(OCCOc2ccccc2C=O)c(OCCOc2ccccc2C=O)cc1OCCOc1ccccc1C=O`, the TGI in the assay on DLD-1 colon, in the assay on DMS 273 small cell lung, with HOP-18 NSCLC and in the assay with M19-MEL melanoma was above 100 µM in each case.
For the compound `Cn1nc(-c2ccccc2)c(C(=O)/C=C/c2ccc(F)cc2)c(N2CCCCC2)c1=O`, the TGI with DLD-1 colon came to 16.6 µM; with DMS 273 small cell lung, 28.8 µM; in the assay with HOP-18 NSCLC it was 20.6 µM; with M19-MEL melanoma, 35.3 µM; in the assay with RXF-631 renal, 53.6 µM.
Regarding `Cc1ccc(-c2cc(-c3ccco3)c(C#N)c(=O)[nH]2)cc1`, the TGI in the assay with DLD-1 colon, with DMS 273 small cell lung, in the assay with HOP-18 NSCLC and in the assay with M19-MEL melanoma was above 100 µM each time.
With `CC[C@@]1(O)C[C@H](OC2CC(N(C)C)C(OC3CC(O)C(OC4CCC(=O)C(C)O4)C(C)O3)C(C)O2)c2c(cc3c(c2O)C(=O)c2c(O)cccc2C3=O)[C@H]1C(=O)OC` (stereo partly drawn), in the assay with DLD-1 colon, the GI50 was 0.00912 µM and 0.00788 µM. Besides, the TGI was 1.15 µM and 1.17 µM in the assay with DLD-1 colon; 0.42 µM and 1.73 µM in the assay with DU-145 prostate; 0.854 µM and 2.72 µM with HOP-18 NSCLC; 0.144 µM and 0.279 µM in the assay with M19-MEL melanoma; 0.0485 µM and 0.131 µM in the assay on MDA-N; 0.659 µM in the assay with P388/ADR leukemia. Moreover, the TGI in the assay on RXF-631 renal is 0.0664 µM; with SN12K1 renal, 0.101 µM; in the assay with T-47D breast it was 0.472 µM and 2.63 µM.
Take `O=C(O)C1C2CCC(O2)C1C(=O)N1CCCCC1` (stereo not drawn): the TGI with DLD-1 colon was determined as 39.7 µM; with DMS 273 small cell lung, 23.3 µM; in the assay with HOP-18 NSCLC, 36.5 µM; with M19-MEL melanoma, 21.9 µM; in the assay with RXF-631 renal it was 51.6 µM.
With `CN(C)c1ccc([O-])cc1.CN(C)c1ccc([O-])cc1.CN(C)c1ccc([O-])cc1.CN(C)c1ccc([O-])cc1.[Ti+4]`, the GI50 was 91 µM in the assay with DLD-1 colon; 34.3 µM in the assay with DMS 273 small cell lung; above 100 µM in the assay with HOP-18 NSCLC; above 100 µM with M19-MEL melanoma; above 100 µM with RXF-631 renal. Moreover, the TGI in the assay with DLD-1 colon, in the assay with DMS 273 small cell lung, in the assay with HOP-18 NSCLC, in the assay on M19-MEL melanoma and in the assay on RXF-631 renal was above 100 µM each time.
On to `C=C(CCCCCCCCC)CC(=O)SCCNC(=O)CCNC(=O)C(O)C(C)(C)COP(=O)(O)OP(=O)(O)OCC1OC(n2cnc3c(N)ncnc32)C(O)C1OP(=O)(O)O` (stereo not drawn), for which the TGI in the assay with DLD-1 colon was above 100 µM; in the assay on DMS 273 small cell lung it was 45.2 µM; in the assay on DU-145 prostate, above 100 µM; with HOP-18 NSCLC it was above 100 µM; in the assay with M19-MEL melanoma, 87.8 µM; in the assay with MCF7 breast, above 100 µM. Besides, the TGI is above 76.6 µM with MDA-N, above 100 µM in the assay on RXF-631 renal and above 100 µM in the assay with T-47D breast.
On to `COC1=CC(=O)C2C(C1=O)[C@@H]1c3ccccc3C[C@H]21` (stereo partly drawn), for which the TGI with DLD-1 colon, in the assay on DMS 273 small cell lung, in the assay on M19-MEL melanoma and in the assay with RXF-631 renal was above 100 µM in each case.
In the case of `COc1ccccc1N=C(N)N/N=C/c1c[nH]c2ccccc12`, the TGI in the assay on DLD-1 colon was determined as 31.7 µM; in the assay on HOP-18 NSCLC it was 34 µM; in the assay with M19-MEL melanoma, 24.7 µM.
As to `CC(C)=CCC/C(C)=C/CC/C(C)=C/Cc1c(O)c2ccccc2oc1=O`, the TGI in the assay with DLD-1 colon, with DMS 273 small cell lung, with HOP-18 NSCLC and in the assay with M19-MEL melanoma was above 100 µM each time.
As to `CC1OC(OCC2OC(Oc3c(-c4ccc(O)cc4)oc4cc(O)cc(O)c4c3=O)C(OC3OC(C)C(O)C(O)C3O)C(O)C2O)C(O)C(O)C1O` (stereo not drawn), the TGI in the assay on DLD-1 colon, in the assay on DMS 273 small cell lung, in the assay with HOP-18 NSCLC, with M19-MEL melanoma and with RXF-631 renal was above 100 µM in each case.
As to `O=C(Nc1cccc([N+](=O)[O-])c1)C(=O)C(C(=O)c1ccccc1-c1ccccc1)C1OC(=O)c2ccccc21` (stereo not drawn), the values for the TGI with DLD-1 colon, in the assay with M19-MEL melanoma and in the assay on RXF-631 renal were 42.2 µM, 38.1 µM and 61.5 µM, respectively.
Regarding `CCO/C=C/C(C)C1(C(=O)OCC)CCCCC1=O` (stereo not drawn), the TGI in the assay on DLD-1 colon was above 100 µM; with DMS 273 small cell lung it was 47 µM; in the assay on HOP-18 NSCLC, above 100 µM; in the assay with M19-MEL melanoma it was above 100 µM; in the assay on RXF-631 renal, above 100 µM.
Regarding `Nc1nc2c(c(=O)[nH]1)NC(CO)CN2` (stereo not drawn), the TGI in the assay on DLD-1 colon, in the assay with DMS 273 small cell lung, with HOP-18 NSCLC and in the assay with M19-MEL melanoma was above 100 µM each time.
In the case of `CC(=O)NNc1nc(C)c(C(=O)NNC(=O)C(=O)Nc2c(C)cccc2C)s1`, the TGI in the assay with DLD-1 colon is above 100 µM; in the assay with DMS 273 small cell lung, above 100 µM; with HOP-18 NSCLC, above 100 µM; in the assay with M19-MEL melanoma, 79.7 µM; with RXF-631 renal, above 100 µM.
In the case of `CC1CC2CC(=O)CC3(C1)C2CCCN3CCCO` (stereo not drawn), the TGI in the assay on DLD-1 colon, with DMS 273 small cell lung, with HOP-18 NSCLC, with M19-MEL melanoma and in the assay on RXF-631 renal was above 100 µM throughout.
As to `Clc1ccc(Cc2nc3ccccc3s2)c(Cl)c1`, the TGI in the assay on DLD-1 colon worked out at 29 µM; in the assay on DMS 273 small cell lung, 33.6 µM; in the assay on HOP-18 NSCLC, 31.4 µM; with M19-MEL melanoma it was 30.5 µM; in the assay on RXF-631 renal, 30.1 µM.
`O=C(/C=C/c1ccccc1)CC1OC(=O)c2ccccc21` (stereo not drawn): the TGI in the assay on DLD-1 colon was above 100 µM; in the assay with DMS 273 small cell lung, above 100 µM; in the assay with HOP-18 NSCLC, 78.4 µM; in the assay on M19-MEL melanoma, above 100 µM.
`O=C(O)COc1ccc(O)c2c1C(=O)CCCC2=O`: the TGI in the assay with DLD-1 colon, with DMS 273 small cell lung, with M19-MEL melanoma and in the assay with RXF-631 renal was above 100 µM throughout.
In the case of `CC(=O)N[C@@H]1C(O)CN2C(=O)C(=O)O[C@H](C(O)CO)[C@@H]12` (stereo partly drawn), the TGI in the assay on DLD-1 colon, with DMS 273 small cell lung, in the assay on HOP-18 NSCLC, in the assay on M19-MEL melanoma and with RXF-631 renal was above 100 µM in each case.
As to `COc1cc(/C=C\c2ccccc2)cc(OC)c1OC`, the TGI in the assay on DLD-1 colon is above 78.2 µM; in the assay with DMS 273 small cell lung it was 11.5 µM; in the assay on HOP-18 NSCLC, above 100 µM; in the assay with M19-MEL melanoma it was above 100 µM; in the assay on RXF-631 renal it was above 87.1 µM.
`CCc1cccc(C(C)C)c1NC(=O)C(=O)CC(=O)c1c(C)n([O-])c2ccccc2[n+]1=O`: the TGI in the assay on DLD-1 colon, in the assay with M19-MEL melanoma and in the assay on RXF-631 renal was above 100 µM in each case.
For `CC1CCP(=O)(c2ccccc2)c2ccccc21` (stereo not drawn), the TGI with DLD-1 colon was above 100 µM; with DMS 273 small cell lung it was 90.2 µM; with HOP-18 NSCLC, above 100 µM; in the assay on M19-MEL melanoma, 58.5 µM.
As to `Oc1cc(O)c(Oc2cccc(O)c2O)c(O)c1`, the TGI with DMS 273 small cell lung was above 100 µM; in the assay on HOP-18 NSCLC, above 100 µM; in the assay on M19-MEL melanoma, 45.9 µM; with RXF-631 renal, above 100 µM.
Take `O=C(c1ccccc1)C1CCCCN1C(=O)c1ccccc1` (stereo not drawn): the TGI in the assay with DLD-1 colon, in the assay with DMS 273 small cell lung, with HOP-18 NSCLC and in the assay with M19-MEL melanoma was above 100 µM throughout.
Take `O=C(c1ccc(Cl)cc1)c1ccc(OCCCCCCCCCCOc2ccc(C(=O)c3ccc(Cl)cc3)cc2)cc1`: the TGI with DLD-1 colon, in the assay on DMS 273 small cell lung and in the assay with RXF-631 renal was above 100 µM throughout.
As for `OCCCOC(c1ccccc1)(c1ccccc1)c1ccccc1`, the TGI in the assay on DLD-1 colon, with DMS 273 small cell lung, in the assay on M19-MEL melanoma and with RXF-631 renal was above 100 µM each time.
In the case of `O=C(Nc1cccs1)c1c(O)[nH]c(=S)[nH]c1=O`, the TGI with DLD-1 colon, in the assay with HOP-18 NSCLC and with RXF-631 renal was above 100 µM in each case.
Regarding `NC1CCCCC1.[O]=[Ge].[O]=[Ge].[O]=[Ge][OH].[O]=[Ge][OH]`, the TGI in the assay on DLD-1 colon, in the assay on DMS 273 small cell lung, in the assay on HOP-18 NSCLC and in the assay with M19-MEL melanoma was above 100 µM throughout.
For `CCCCC1CC(c2cccc([N+](=O)[O-])c2)=NO1` (stereo not drawn), the TGI in the assay with DLD-1 colon, in the assay with DMS 273 small cell lung, with HOP-18 NSCLC, in the assay with M19-MEL melanoma and in the assay on RXF-631 renal was above 100 µM in each case.
`CC(C)C1(O)C(c2ccccc2)=C(c2ccccc2)C(c2ccccc2)=C1c1ccccc1`: the TGI was above 100 µM in the assay on DLD-1 colon, 37.1 µM in the assay with DMS 273 small cell lung, 52.7 µM in the assay on HOP-18 NSCLC and 51.3 µM in the assay with RXF-631 renal.

The record behind these values is PubChem BioAssay (NCI).
